Our source for the inhibition values is article PMC8041284, “Tunable Methacrylamides for Covalent Ligand Directed Release Chemistry” (Journal of the American Chemical Society, 2021).

For the assay, the target named is BTK (Homo sapiens, UniProt Q06187). Description: biochemical.
The mark [1] stands for this setting: read-out: BTK inhibition (%), 0.75 uM BTK, […] probe 3l, 15 min preincubation.

Like-named read-outs stand apart in the source and are kept apart here. Where a SMILES comes first, the peptide text is derived from it. Bridges are numbered along the chain shown (N, C = ends).

BTK, sequence (Q06187 402-655 limits assumed): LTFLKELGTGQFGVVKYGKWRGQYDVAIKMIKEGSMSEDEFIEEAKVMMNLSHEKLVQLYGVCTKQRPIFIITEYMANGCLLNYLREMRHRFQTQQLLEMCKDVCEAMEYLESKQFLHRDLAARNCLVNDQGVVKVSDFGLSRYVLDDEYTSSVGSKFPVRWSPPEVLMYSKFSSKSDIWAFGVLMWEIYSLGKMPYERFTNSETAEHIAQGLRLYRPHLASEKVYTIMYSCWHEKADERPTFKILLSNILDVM

In the case of `OC[C@H]1O[C@H](OC[C@H]2O[C@H](OC[C@H]3O[C@H](O[C@]4(CO)O[C@H](CO)[C@@H](O)[C@@H]4O)[C@H](O)[C@@H](O)[C@@H]3O)[C@H](O)[C@@H](O)[C@H]2O)[C@H](O)[C@@H](O)[C@H]1O` [PCM-0216230], the inhibition (in general, the relative decrease from the control value, in per cent) at 10 µM under setting [1] worked out at 17.8%.
With `CO[C@H]1C[C@H](O[C@@H]2/C(C)=C/C[C@@H]3C[C@@H](C[C@]4(CC[C@H](C)[C@@H](C5CCCCC5)O4)O3)OC(=O)[C@@H]3C=C(C)/C(=N/O)[C@H]4OC/C(=C\C=C\[C@@H]2C)[C@]43O)O[C@@H](C)[C@@H]1O` [PCM-0216231], the inhibition at 10 µM under setting [1] was 41.7%.
Same read-out and setting: then `NC(=O)c1ccc[n+]([C@@H]2O[C@H](COP(=O)([O-])O)[C@@H](O)[C@H]2O)c1` [PCM-0216232], with -6.8%; and `Cc1[nH]c(/C=C2\C(=O)Nc3ccc(F)cc32)c(C)c1C(=O)NCCN1CCCC1` [PCM-0216233], with 18.7%.
Same read-out and setting: then `CNC(=O)c1cnn(-c2nc(N)c3ncn([C@@H]4O[C@H](CO)[C@@H](O)[C@H]4O)c3n2)c1` [PCM-0216236], with 5.4%; and `C[C@H]1C[C@H]2[C@@H]3C[C@H](F)C4=CC(=O)C=C[C@]4(C)[C@@]3(F)[C@@H](O)C[C@]2(C)[C@@]1(O)C(=O)CO` [PCM-0216237], with 9%.
On the same count and under the same terms, then `O=C(O)COc1nn(Cc2ccccc2)c2ccccc12` [PCM-0216238], with -3.1%.
As to `COC(=O)C1=CC[C@@]23CC[C@@H]([C@@](C)(/C=C/C=C(\C)C(=O)O)OC2=O)[C@@]3(OC(C)=O)CC1` [PCM-0216239], the inhibition at 10 µM under setting [1] came out at 2.1%.
Still for that read-out and setting: then `CC(=O)Oc1ccc(C(=C2CCCCC2)c2ccc(OC(C)=O)cc2)cc1` [PCM-0216241], with -3.9%.
Still for that read-out and setting: to `CCCOC(=O)c1ccc(O)cc1` [PCM-0216242] belongs -6.2%; to `CC1(C)S[C@@H]2[C@H](NC(=O)[C@H](N)c3ccccc3)C(=O)N2[C@H]1C(=O)OCOC(=O)[C@@H]1N2C(=O)C[C@H]2S(=O)(=O)C1(C)C` [PCM-0216243], -11.6%.
On the same count and under the same terms, to `CCOc1ccc(Cc2cc([C@]34OC[C@](CO)(O3)[C@@H](O)[C@H](O)[C@H]4O)ccc2Cl)cc1` [PCM-0216244] belongs 7.7%; to `O=C(c1ccc(Oc2ccccc2)cc1Cl)c1c[nH]c2ncnc(N[C@@H]3CC[C@@H](CO)OC3)c12` [PCM-0216245], 116%.
For `C[C@@H](C(=O)Nc1ccc(Cl)cc1)C1CCC(c2ccnc3ccc(F)cc23)CC1` (some centres unmarked) [PCM-0216246], the inhibition at 10 µM under setting [1] worked out at 27%.
Still for that read-out and setting: to `Cc1ccc(-c2n[nH]c3c2C(c2cccc(O)c2)N(c2ccc(C(=O)O)cc2)C3=O)cc1` (centres unmarked) [PCM-0216247] belongs 41.7%; to `CCCCC(=O)OCC(=O)[C@H]1[C@H](C)C[C@H]2[C@@H]3C[C@H](F)C4=CC(=O)C=C[C@]4(C)[C@@]3(F)[C@@H](O)C[C@@]21C` [PCM-0216248], 2.3%; to `C[C@H]1O[C@@H](O[C@H]2CC[C@@]3(C)[C@@H](CC[C@]4(C)[C@@H]3C=C[C@]35OC[C@@]6(CCC(C)(C)C[C@H]63)[C@@H](O)C[C@]54C)[C@]2(C)CO)[C@H](O)[C@@H](O[C@@H]2O[C@H](CO)[C@@H](O)[C@H](O)[C@H]2O)[C@H]1O` [PCM-0216249], -23.4%.
On the same count and under the same terms, to `O=C(Nc1ncc([N+](=O)[O-])s1)c1ccccc1O` [PCM-0216250] belongs 7.7%; to `CS(=O)(=O)Nc1cc2occ(NC=O)c(=O)c2cc1Oc1ccccc1` [PCM-0216251], 6.2%; to `C[C@H](CSC(=O)c1ccccc1)C(=O)N1C[C@@H](Sc2ccccc2)C[C@H]1C(=O)O` [PCM-0216252], -43.2%.
For `NCCC[C@H](N)C(=O)O` [PCM-0216253], the inhibition at 10 µM under setting [1] is -3.4%.
On the same count and under the same terms, then `CC1(C)OC[C@@H](COC(=O)CCc2ccc(OC[C@@H](O)CNCCNC(=O)N3CCOCC3)cc2)O1` [PCM-0216254], with -3.1%; and `CCC(=O)O[C@@H]1CC(=O)O[C@H](C)C/C=C/C=C/[C@H](O)[C@H](C)C[C@H](CC=O)[C@H](O[C@@H]2O[C@H](C)[C@@H](O[C@H]3C[C@@](C)(O)[C@@H](OC(=O)CC)[C@H](C)O3)[C@H](N(C)C)[C@H]2O)[C@H]1OC` [PCM-0216255], with 6.2%.
Take `CC(C)CCNc1ncccc1C(=O)N1CCN(Cc2ccccc2)CC1` [PCM-0216256]: the inhibition at 10 µM under setting [1] was -30.1%.
On the same count and under the same terms, then `CC1(C)C[C@@H]1C(=O)N/C(=C\CCCCSC[C@H](N)C(=O)O)C(=O)O` [PCM-0216257], with -10%; and `CCCCCC1C(=O)CCC1CC(=O)OCCC` (centres unmarked) [PCM-0216258], with -0.8%.
On the same count and under the same terms, to `C=CC(=O)Nc1cc(Nc2nccc(-n3cc(CN(C)C)c(-c4ccccc4)n3)n2)c(OC)cc1N1CCOCC1` [PCM-0216259] belongs 11.1%; to `Cc1cc(=O)c(C(=O)N[C@@H](C(=O)N[C@@H]2C(=O)N3C(C(=O)O)=C(CSc4nnnn4C)CS[C@H]23)c2ccc(O)cc2)c[nH]1` [PCM-0216260], 23.2%; to `CC1=C(C/C=C(\C)CCC[C@H](C)CCC[C@H](C)CCCC(C)C)C(=O)c2ccccc2C1=O` [PCM-0216261], 7.8%.
On the same count and under the same terms, then `CCOC(=O)c1cc(O)c(O)c(O)c1` [PCM-0216263], with 9.3%; and `NCCCC[C@H](NC(=O)[C@@H]1CCCN1C(=O)[C@@H]1CSSC[C@H](N)C(=O)N[C@@H](Cc2ccc(O)cc2)C(=O)N[C@@H](Cc2ccccc2)C(=O)N[C@@H](CCC(N)=O)C(=O)N[C@@H](CC(N)=O)C(=O)N1)C(=O)NCC(N)=O` [PCM-0216267], with -19.6%.
Turning to `CCNC(=O)[C@@H]1CCCN1C(=O)[C@H](CCCN=C(N)N)NC(=O)[C@H](CC(C)C)NC(=O)[C@@H](C)NC(=O)[C@H](Cc1ccc(O)cc1)NC(=O)[C@H](CO)NC(=O)[C@H](Cc1c[nH]c2ccccc12)NC(=O)[C@H](Cc1cnc[nH]1)NC(=O)C1CCC(=O)N1` (some centres unmarked) [PCM-0216272], the inhibition at 10 µM under setting [1] was 23.8%.
With `CC(C)C[C@H](NC(=O)CNC(=O)[C@H](Cc1ccc(O)cc1)NC(=O)[C@H](CO)NC(=O)[C@H](Cc1c[nH]c2ccccc12)NC(=O)[C@H](Cc1cnc[nH]1)NC(=O)[C@@H]1CCC(=O)N1)C(=O)N[C@@H](CCCN=C(N)N)C(=O)N1CCC[C@H]1C(=O)NCC(N)=O` [PCM-0216273], the inhibition at 10 µM under setting [1] was -5.1%.
Same read-out and setting: to `NCCCC[C@H](NC(=O)[C@@H]1CCCN1C(=O)[C@@H]1CSSC[C@H](NC(=O)CNC(=O)CNC(=O)CN)C(=O)N[C@@H](Cc2ccc(O)cc2)C(=O)N[C@@H](Cc2ccccc2)C(=O)N[C@@H](CCC(N)=O)C(=O)N[C@@H](CC(N)=O)C(=O)N1)C(=O)NCC(N)=O` [PCM-0216274] (H-GGGCYFQNCPKG-NH2; disulfide 4-9) belongs -3.4%.
Same read-out and setting: to `CN1CCc2nc(C(=O)N[C@@H]3C[C@@H](C(=O)N(C)C)CC[C@@H]3NC(=O)C(=O)Nc3ccc(Cl)cn3)sc2C1` [PCM-0216277] belongs -4.6%.
In the case of `Cc1cc(O)cc(O)c1` [PCM-0216278], the inhibition at 10 µM under setting [1] worked out at 3.1%.
The same measure, in the same setting: to `Cc1cc(=O)oc2ccc(O)cc12` [PCM-0216279] belongs 17%; to `CCOC(=O)c1cc2ccccc2oc1=O` [PCM-0216280], -16.2%; to `CCOc1cc(C=O)ccc1OC(C)=O` [PCM-0216281], 4.6%.
On the same count and under the same terms, then `COC(=O)[C@H](O)[C@@H](NC(=O)c1ccccc1)c1ccccc1` [PCM-0216282], with -5.4%.
Consider `COC1[C@@H](O)[C@H](O)C(O)[C@H](O)[C@H]1O` (some centres unmarked) [PCM-0216283], for which the inhibition at 10 µM under setting [1] was 11.6%.
Turning to `OC[C@@H](O)[C@@H](O)[C@@H](O)[C@@H](O)CO` [PCM-0216285], the inhibition at 10 µM under setting [1] is -17%.
For the compound `CCOC(=O)/C=C/c1ccc(OC)cc1` [PCM-0216286], the inhibition at 10 µM under setting [1] was -3.1%.
As for `O=C(O)C(=O)O` [PCM-0216287], the inhibition at 10 µM under setting [1] was -10%.
Still for that read-out and setting: then `O=c1ccc2cc(O)ccc2o1` [PCM-0216289], with -10%; and `O=c1ccn([C@@H]2O[C@H](COP(=O)(O)O)[C@@H](O)[C@H]2O)c(=O)[nH]1` [PCM-0216290], with -6.8%; and `Nc1ncnc2c1ncn2[C@@H]1O[C@H](COP(=O)(O)OP(=O)(O)O)[C@@H](O)[C@H]1O` [PCM-0216291], with 3.1%.
The same measure, in the same setting: to `O=c1[nH]c(=O)c2ncn([C@@H]3O[C@H](CO)[C@@H](O)[C@H]3O)c2[nH]1` [PCM-0216292] belongs 13.1%; to `CC(=O)c1cc(O)ccc1O` [PCM-0216293], -1.5%; to `O=c1cc(-c2ccc(O)cc2)oc2cccc(O)c12` [PCM-0216294], 32.4%.
Take `CCC/C=C1\OC(=O)C2=C1CCC=C2` [PCM-0216295]: the inhibition at 10 µM under setting [1] is 14.7%.
The same measure, in the same setting: then `CC1(C)CC[C@]2(C(=O)O)[C@H](O)C[C@]3(C)C(=CC[C@@H]4[C@@]5(C)C[C@H](O)[C@H](O)[C@@](C)(CO)[C@@H]5CC[C@]43C)[C@@H]2C1` [PCM-0216296], with -10.8%; and `Oc1ccc2c(c1)OC[C@@H]1c3cc4c(cc3O[C@H]21)OCO4` [PCM-0216297], with -20.1%; and `C[C@@H]([C@H](C)O)[C@H](N)C(=O)O` [PCM-0216300], with -12.4%.
As for `O=C(N[C@@H](c1ccccc1)[C@@H](O)C(=O)O)c1ccccc1` [PCM-0216301], the inhibition at 10 µM under setting [1] is 9.3%.
As to `O=C1O[C@H]2[C@@H]3OC(=O)c4cc(O)c(O)c(O)c4-c4c(cc(O)c(O)c4O)C(=O)OC[C@H]2O[C@@H](OC(=O)c2cc(O)c(O)c(O)c2)[C@@H]3OC(=O)c2cc(O)c(O)c3c2[C@@H]2C1=CC(=O)[C@](O)(O3)C2(O)O` [PCM-0216302], under setting [1], the inhibition at 10 µM stood at 0%.
Same read-out and setting: then `C=CC[S@+]([O-])C[C@H](N)C(=O)O` [PCM-0216303], with -9.3%.
Turning to `CCN1C[C@]2(COC)CC[C@H](OC)[C@]34C1[C@H]([C@H](OC)[C@H]23)[C@@]1(OC(C)=O)C[C@H](OC)[C@@]2(O)C[C@@H]4[C@@H]1[C@H]2OC(=O)c1ccc(OC)cc1` [PCM-0216304], the inhibition at 10 µM (read-out: BTK inhibition (%)) is -17%.
Take `CC[C@H]1CN2CC[C@]3(C(=O)Nc4ccccc43)[C@@H]2C[C@@H]1/C(=C\OC)C(=O)OC` [PCM-0216305]: under setting [1], the inhibition at 10 µM was determined as 3.9%.
